Results taken from article PMC8913300, “Two distinct classes of cochaperones compete for the EEVD motif in heat shock protein 70 to tune its chaperone activities” (The Journal of Biological Chemistry, 2022).

Assays:
[1] = biological target: T1, DnaJB4 (Homo sapiens, UniProt Q9UDY4); assay: Fluorescence polarization saturation binding of Hsp72 tracer to DnaJB4; details: Fig. 8A right; FP saturation binding, 20 nM tracer, JDP binding buffer pH 8.0, 30 min room temperature; mean with 95% confidence interval, four replicates
T1 construct: 6-His with TEV-cleavable linker (N, cleaved yes); made in house; host or cells: Escherichia coli BL21 (DE3) Rosetta
T1 sequence (Q9UDY4 whole entry): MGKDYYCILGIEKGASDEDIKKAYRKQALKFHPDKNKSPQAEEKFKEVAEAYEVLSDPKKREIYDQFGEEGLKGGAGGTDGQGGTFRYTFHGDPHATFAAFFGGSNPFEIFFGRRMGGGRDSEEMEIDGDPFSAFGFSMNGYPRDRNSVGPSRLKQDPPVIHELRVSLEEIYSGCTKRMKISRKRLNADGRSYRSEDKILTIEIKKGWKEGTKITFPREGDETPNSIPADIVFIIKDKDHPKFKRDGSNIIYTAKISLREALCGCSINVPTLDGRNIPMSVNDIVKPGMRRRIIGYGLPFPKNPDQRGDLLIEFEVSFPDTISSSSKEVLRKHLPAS
Procedure: (§1) All FP experiments were performed in 384-well, black, low-volume, round-bottom plates at a final assay volume of 18 μl (Corning 4511). Polarization values in millipolarization units (mP) were measured at an excitation wavelength of 485 nm and an emission wavelength of 525 nm, with 100 flashes per read using a Spectramax M5 plate reader (Molecular Devices). All experiments were performed 2 times in quadruplicate. Experimental data were analyzed using GraphPad Prism 9. Saturation binding data were background subtracted, and curves were fit using the model [Agonist] versus response (three parameters). For competition experiments, data were background subtracted to tracer alone and normalized to DMSO control to determine relative tracer displacement.
(§2) A sample of 20 nM Hsp72 tracers (FITC-Ahx-GSGPTIEEVD or FITC-Ahx-GSGPEIEEVD) was incubated with various concentrations of DnaJB4 (WT or QPD mutant) or CHIP in 2× dilutions (final [protein] = 110–0.013 μM) in binding buffer (JDP binding buffer = 50 mM Tris, 15 mM NaCl, 1 mM DTT, 0.01% Triton X-100, pH 8.0; CHIP binding buffer = 25 mM Hepes, 50 mM KCl, 0.01% Triton X-100, pH 7.4). The plate was covered from light and allowed to incubate at room temperature for 30 min prior to reading.

[2] = biological target: T2, DnaJB4 QPD mutant (Homo sapiens, UniProt Q9UDY4, H32Q); assay: Fluorescence polarization saturation binding of Hsp72 tracer to DnaJB4 QPD mutant; details: Fig. 2D, FP saturation binding, 20 nM tracer, 30 min room temperature, mean with 95% confidence interval, four replicates
T2 construct: 6-His with TEV-cleavable linker (N, cleaved yes); made in house; host or cells: Escherichia coli BL21 (DE3) Rosetta
T2 sequence (Q9UDY4 whole entry H32Q): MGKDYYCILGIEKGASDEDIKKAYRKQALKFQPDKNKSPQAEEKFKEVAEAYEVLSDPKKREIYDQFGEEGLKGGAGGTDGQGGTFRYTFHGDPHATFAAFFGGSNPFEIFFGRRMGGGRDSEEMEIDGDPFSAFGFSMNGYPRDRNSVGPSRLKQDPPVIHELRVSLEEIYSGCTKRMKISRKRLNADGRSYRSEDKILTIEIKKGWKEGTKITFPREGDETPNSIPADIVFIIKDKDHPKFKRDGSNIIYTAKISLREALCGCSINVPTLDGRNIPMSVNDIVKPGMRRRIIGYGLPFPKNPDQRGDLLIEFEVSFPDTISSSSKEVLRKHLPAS
Procedure: as §1, §2

[3] = system: Hsp72–DnaJB4 complex; assay: CHIP inhibition of DnaJB4-stimulated Hsp72 ATPase activity; type: biochemical; details: 25 μM CHIP, 40-fold excess relative to DnaJB4 (625 nM)
Procedure: (§3) ATPase assays were carried out using the malachite green assay as described ([14], [83]). In brief, 1 μM Hsp72 and various concentrations of DnaJB4 were added to clear 96-well plates, and the reactions were initiated by addition of 2.5 mM ATP. Reactions were allowed to proceed for 1 h at 37 °C, after which they were developed using malachite green reagent and quenched with sodium citrate. Plate absorbance was measured at 620 nm, and a standard curve of sodium phosphate was used to convert the absorbance values to pmol ATP/μM Hsp72/min. Vmax and Km, app were derived as fit parameters to a modified Michaelis–Menten model (ATPase rate=Vmax∗[DnaJB4]/(Km, app+[DnaJB4])) where Vmax reflects the maximal increased ATP hydrolysis conferred by DnaJB4 binding and Km,app represents the half-maximal concentration of DnaJB4 binding to and stimulating the ATPase activity of Hsp72.

[4] = system: Hsp72–DnaJB4 complex; assay: Luciferase refolding by Hsp72/DnaJB4 in the presence of TPR cochaperones; type: biochemical; details: 1 μM Hsp72, 100 nM denatured luciferase, 120 nM DnaJB4; CHIP titration or 10 μM TPR protein; 1 h at 37 °C
Procedure: Experiments were performed as described ([14]). Briefly, Renilla luciferase (Promega) was denatured in 8 M GdnHCl for 2 h at room temperature. Hsp72 (1 μM) and denatured luciferase (100 nM) were diluted into a working concentration in buffer containing an ATP regenerating system (23 mM Hepes, 120 mM KAc, 1.2 mM MgAc, 15 mM DTT, 61 mM creatine phosphate, 35 units/ml creatine kinase, and 5 ng/μl bovine serum albumin, pH 7.4). A titration series of DnaJB4 was added, and the reaction was initiated with the addition of 2.5 mM ATP. For competition assays with DnaJB4, complexes of Hsp72 (1 μM), denatured luciferase (100 nM), and DnaJB4 (120 nM) were incubated with either a titration of CHIP or 10 μM of indicated TPR protein. In all cases, the assay was allowed to incubate for 1 h at 37 °C in white, 96-well flat-bottom plates (Corning 3990). Luminescence was measured using the SteadyGlo luminescence reagent (Promega), and percent refolded luciferase was calculated using a standard curve of 100 to 0 nM native luciferase.

[5] = system: Hsp70–CHIP complex; assay: In vitro ubiquitination of Hsc70 by CHIP in the presence of DnaJB4; type: biochemical; details: 1 μM CHIP, 1 μM FAM-labeled Hsc70, increasing DnaJB4, 10 min room temperature
Procedure: (§4) Four 4 × stock solutions were prepared containing (i) Ube1 (R&D Systems) + UbcH5c/UBE2D3 (R&D Systems) (400 nM Ube1 and 4 μM UbcH5c), (ii) Ubiquitin (R&D Systems) (1 mM Ub), (iii) CHIP + substrate + DnaJB4 (4 μM CHIP, 4 μM substrate, varying concentrations of DnaJB4), and (iv) ATP + MgCl2 (10 mM ATP and 10 mM MgCl2) in ubiquitination assay buffer (50 mM Tris pH 8.0, 15 mM NaCl). CHIP + substrate + DnaJB4 solutions were allowed to equilibrate at room temperature for 30 min prior to initiating the reaction. Ubiquitination reactions were generated by adding 10 μl of each 4 × stock, in order from 1 to 4, for a final volume of 40 μl(100 nM Ube1, 1 μM UbcH5c, 250 μM ubiquitin, 2.5 mM ATP, 2.5 mM MgCl2, 1 μM CHIP and 1 μM substrate). […] Samples were separated by SDS-PAGE on 4% to 20% polyacrylamide gels (Bio-Rad) and analyzed by in-gel fluorescence on a Chemidoc Imager (Bio-Rad) using the SYBR green fluorescence setting or by staining with Coomassie blue reagent. Quantitation of substrate ubiquitination was performed by densitometry analysis in ImageJ (NIH), which was thresholded to a no-CHIP control.
(§5) Substrates for in vitro ubiquitination assays were labeled with 6-carboxyfluorescein (FAM) to enable in-gel fluorescence measurement of ubiquitination as described ([35]). […]

[6] = system: Hsp72 ΔEEVD; assay: DnaJB4 stimulation of ATPase activity of Hsp72 ΔEEVD (malachite green); type: biochemical; details: Hsp72 ΔEEVD mutant
Procedure: as §3

[7] = system: MAPT/tau ubiquitination by CHIP; assay: In vitro ubiquitination of MAPT/tau by CHIP in the presence of DnaJB4; type: biochemical; details: 1 μM CHIP, tau substrate, 30 min room temperature
Procedure: Four 4 × stock solutions were prepared containing (i) Ube1 (R&D Systems) + UbcH5c/UBE2D3 (R&D Systems) (400 nM Ube1 and 4 μM UbcH5c), (ii) Ubiquitin (R&D Systems) (1 mM Ub), (iii) CHIP + substrate + DnaJB4 (4 μM CHIP, 4 μM substrate, varying concentrations of DnaJB4), and (iv) ATP + MgCl2 (10 mM ATP and 10 mM MgCl2) in ubiquitination assay buffer (50 mM Tris pH 8.0, 15 mM NaCl). CHIP + substrate + DnaJB4 solutions were allowed to equilibrate at room temperature for 30 min prior to initiating the reaction. Ubiquitination reactions were generated by adding 10 μl of each 4 × stock, in order from 1 to 4, for a final volume of 40 μl(100 nM Ube1, 1 μM UbcH5c, 250 μM ubiquitin, 2.5 mM ATP, 2.5 mM MgCl2, 1 μM CHIP and 1 μM substrate). Reactions were incubated at room temperature (10 min for chaperone ubiquitination, 30 min for tau ubiquitination), quenched in 20 μl 3 × SDS-PAGE loading buffer (188 mM Tris-HCl pH 6.8, 3% SDS, 30% glycerol, 0.01% bromophenol blue, 15% β-mercaptoethanol), and heated to 95 °C for 5 min. Samples were separated by SDS-PAGE on 4% to 20% polyacrylamide gels (Bio-Rad) and analyzed by in-gel fluorescence on a Chemidoc Imager (Bio-Rad) using the SYBR green fluorescence setting or by staining with Coomassie blue reagent. Quantitation of substrate ubiquitination was performed by densitometry analysis in ImageJ (NIH), which was thresholded to a no-CHIP control. […]

[8] = system: Hsp72 I637A; assay: DnaJB4 stimulation of ATPase activity of Hsp72 I637A (malachite green); type: biochemical
Procedure: as §3

[9] = system: Hsp90⍺ ubiquitination by CHIP; assay: In vitro ubiquitination of Hsp90⍺ by CHIP in the presence of DnaJB4; type: biochemical; details: 1 μM CHIP, 1 μM FAM-labeled Hsp90⍺, increasing DnaJB4, 10 min room temperature
Procedure: as §4, §5

[10] = system: WT Hsp72; assay: DnaJB4 stimulation of ATPase activity of WT Hsp72 (malachite green); type: biochemical
Procedure: as §3

CC[C@H](C)[C@H](NC(=O)[C@@H](NC(=O)[C@@H]1CCCN1C(=O)CNC(=O)[C@H](CO)NC(=O)CNC(=O)CCCCCNC(=S)Nc1ccc2c(c1)C(=O)OC21c2ccc(O)cc2Oc2cc(O)ccc21)[C@@H](C)O)C(=O)N[C@@H](CCC(=O)O)C(=O)N[C@@H](CCC(=O)O)C(=O)N[C@H](C(=O)N[C@@H](CC(=O)O)C(=O)O)C(C)C [Hsp72 tracer]
Kd [1]: 1970 ± 280 nM
Kd [2]: 2440 ± 280 nM

CHIP: C terminus of Hsc70 interacting protein, E3 ubiquitin ligase, TPR cochaperone, recombinant human
inhibition of DnaJB4-stimulated ATPase activity [3]: significant inhibition
effect on client (luciferase) refolding by Hsp72–DnaJB4 [4]: potent inhibitor

DnaJB4: representative class B J-domain protein, recombinant, full length
effect on Hsp70 ubiquitination by CHIP [5]: dose-dependent inhibition
stimulation of ATPase activity [6]: unable to stimulate
effect on ubiquitination of Hsc70 and tau by CHIP [7]: suppressed
Vmax,app above baseline ([8]; Hsp72 I637A): ~2 fold
Vmax,app ([8]; Hsp72 I637A 1 μM, DnaJB4 titration, 2.5 mM ATP, 1 h at 37 °C, Michaelis–Menten fit): 23.9 ± 3.6 pmol ATP/min
Km ([8]; Hsp72 I637A 1 μM, DnaJB4 titration, Michaelis–Menten fit, read-out: Km,app): ~0.01 µM
effect on Hsp90 ubiquitination by CHIP [9]: no effect
stimulation of Vmax,app over baseline ([10]; WT Hsp72): ~4 fold
maximum ATPase activity (Vmax,app) ([10]; WT Hsp72 1 μM, DnaJB4 titration, 2.5 mM ATP, 1 h at 37 °C, Michaelis–Menten fit): 37.8 ± 3.5 pmol ATP/min
Km ([10]; WT Hsp72 1 μM, DnaJB4 titration, Michaelis–Menten fit, read-out: half-maximal concentration (Km,app)): ~0.06 µM
